According to ChEMBL document CHEMBL4004838, “Design and synthesis of novel phenyl -1, 4-beta-carboline-hybrid molecules as potential anticancer agents” (Eur J Med Chem, 2017):

Key:
Format in all cases: functional
SK-MEL-5 = experiment: Growth inhibition of human SK-MEL-5 cells assessed as cell growth at 1 uM incubated for 48 hrs by sulforhodamine B assay relative to control; settings: SK-MEL-5, 48 h, read-out: Activity
SW-620 = experiment: Growth inhibition of human SW620 cells assessed as cell growth at 0.01 uM incubated for 48 hrs by sulforhodamine B assay relative to control; settings: SW-620, 48 h, read-out: Activity
K562 = experiment: Growth inhibition of human K562 cells incubated for 48 hrs by sulforhodamine B assay; settings: K562, 48 h
HCC 2998 = experiment: Growth inhibition of human HCC2998 cells assessed as cell growth at 100 uM incubated for 48 hrs by sulforhodamine B assay relative to control; settings: HCC 2998, 48 h, read-out: Activity
MOLT-4 = experiment: Growth inhibition of human MOLT4 cells assessed as cell growth at 0.01 uM incubated for 48 hrs by sulforhodamine B assay relative to control; settings: MOLT-4, 48 h, read-out: Activity
NCI-H322M = experiment: Growth inhibition of human NCI-H322M cells incubated for 48 hrs by sulforhodamine B assay
EKVX [1] = experiment: Growth inhibition of human EKVX cells assessed as cell growth at 0.1 uM incubated for 48 hrs by sulforhodamine B assay relative to control; settings: read-out: Activity
NCI-H23 = experiment: Growth inhibition of human NCI-H23 cells assessed as cell growth at 0.01 uM incubated for 48 hrs by sulforhodamine B assay relative to control; settings: NCI-H23, 48 h, read-out: Activity
MDA-MB-231 = experiment: Growth inhibition of human MDA-MB-231 cells assessed as cell growth at 0.01 uM incubated for 48 hrs by sulforhodamine B assay relative to control; settings: MDA-MB-231, 48 h, read-out: Activity
COLO 205 = experiment: Growth inhibition of human COLO205 cells assessed as cell growth at 0.1 uM incubated for 48 hrs by sulforhodamine B assay relative to control; settings: COLO 205, 48 h, read-out: Activity
IGROV-1 = experiment: Growth inhibition of human IGROV1 cells assessed as cell growth at 1 uM incubated for 48 hrs by sulforhodamine B assay relative to control; settings: IGROV-1, 48 h, read-out: Activity
TK-10 = experiment: Growth inhibition of human TK10 cells incubated for 48 hrs by sulforhodamine B assay; settings: TK-10, 48 h
SNB-75 = experiment: Growth inhibition of human SNB75 cells assessed as cell growth at 0.1 uM incubated for 48 hrs by sulforhodamine B assay relative to control; settings: SNB-75, 48 h, read-out: Activity
Malme-3M [2] = experiment: Growth inhibition of human MALME-3M cells assessed as cell growth at 100 uM incubated for 48 hrs by sulforhodamine B assay relative to control; settings: read-out: Activity
Malme-3M [3] = experiment: Growth inhibition of human MALME-3M cells assessed as cell growth at 0.1 uM incubated for 48 hrs by sulforhodamine B assay relative to control; settings: read-out: Activity
SK-OV-3 = experiment: Growth inhibition of human SKOV3 cells assessed as cell growth at 100 uM incubated for 48 hrs by sulforhodamine B assay relative to control; settings: SK-OV-3, 48 h, read-out: Activity
RXF 393 = experiment: Growth inhibition of human RXF393 cells assessed as cell growth at 0.01 uM incubated for 48 hrs by sulforhodamine B assay relative to control; settings: RXF 393, 48 h, read-out: Activity
NCI-H522 = experiment: Growth inhibition of human NCI-H522 cells incubated for 48 hrs by sulforhodamine B assay; settings: NCI-H522, 48 h
A498 = experiment: Growth inhibition of human A498 cells assessed as cell growth at 0.1 uM incubated for 48 hrs by sulforhodamine B assay relative to control; settings: A498, 48 h, read-out: Activity
SF-539 = experiment: Growth inhibition of human SF539 cells assessed as cell growth at 0.1 uM incubated for 48 hrs by sulforhodamine B assay relative to control; settings: SF-539, 48 h, read-out: Activity
SR [4] = experiment: Growth inhibition of human SR cells assessed as cell growth at 0.1 uM incubated for 48 hrs by sulforhodamine B assay relative to control; settings: read-out: Activity
HCT-15 = experiment: Growth inhibition of human HCT15 cells assessed as cell growth at 1 uM incubated for 48 hrs by sulforhodamine B assay relative to control; settings: HCT-15, 48 h, read-out: Activity
SNB-19 = experiment: Growth inhibition of human SNB19 cells assessed as cell growth at 0.1 uM incubated for 48 hrs by sulforhodamine B assay relative to control; settings: SNB-19, 48 h, read-out: Activity
OVCAR-3 = experiment: Growth inhibition of human OVCAR3 cells incubated for 48 hrs by sulforhodamine B assay; settings: OVCAR-3, 48 h
SR [5] = experiment: Growth inhibition of human SR cells assessed as cell growth at 100 uM incubated for 48 hrs by sulforhodamine B assay relative to control; settings: read-out: Activity
Hs-578T = experiment: Growth inhibition of human Hs 578T cells assessed as cell growth at 0.1 uM incubated for 48 hrs by sulforhodamine B assay relative to control; settings: read-out: Activity
A549 [6] = experiment: Growth inhibition of human A549/ATCC cells incubated for 48 hrs by sulforhodamine B assay; settings: A549, 48 h
LOX IMVI = experiment: Growth inhibition of human LOXIMVI cells assessed as cell growth at 0.01 uM incubated for 48 hrs by sulforhodamine B assay relative to control; settings: read-out: Activity
A549 [7] = experiment: Growth inhibition of human A549/ATCC cells assessed as cell growth at 0.01 uM incubated for 48 hrs by sulforhodamine B assay relative to control; settings: A549, 48 h, read-out: Activity
EKVX [8] = experiment: Growth inhibition of human EKVX cells assessed as cell growth at 0.01 uM incubated for 48 hrs by sulforhodamine B assay relative to control; settings: read-out: Activity
EKVX [9] = experiment: Growth inhibition of human EKVX cells assessed as cell growth at 100 uM incubated for 48 hrs by sulforhodamine B assay relative to control; settings: read-out: Activity
[10] = read-out: LC50 (the source's name)
[11] = read-out: pLC50 (the source's name) (converted)

`c1ccc2c3c([nH]c2c1)C(c1ccc(C2NCCc4c2[nH]c2ccccc42)cc1)NCC3` (racemic) was tested, and the growth at 1 µM (SK-MEL-5) was 94%, the growth at 0.01 µM (SW-620) was 101% and the GI50 (K562; read-out: GI50) was 2440 nM. It also gave a CC50 (K562; [10]) of 9750 nM, a TGI (K562; read-out: TGI) of 4880 nM and a GI50 (K562; read-out: pGI50 (converted)) of 245 nM. The CC50 (K562; [11]) was 977 nM, the TGI (K562; read-out: pTGI (converted)) was 4900 nM and the growth at 100 µM (HCC 2998) was 84%. The growth at 0.01 µM (MOLT-4) was 110%, the GI50 (NCI-H322M; read-out: GI50) was 1250 nM and the CC50 (NCI-H322M; [10]) was 5680 nM. It also gave a TGI (NCI-H322M; read-out: TGI) of 2660 nM, a GI50 (NCI-H322M; read-out: pGI50 (converted)) of 1260 nM and a CC50 (NCI-H322M; [11]) of 5620 nM. It also gave a TGI (NCI-H322M; read-out: pTGI (converted)) of 2690 nM, a growth at 0.1 µM (EKVX [1]) of 90% and a growth at 0.01 µM (NCI-H23) of 95%. It also gave a growth at 0.01 µM (MDA-MB-231) of 97%, a growth at 0.1 µM (COLO 205) of 94% and a growth at 1 µM (IGROV-1) of 70%. It also gave a GI50 (TK-10; read-out: GI50) of 1980 nM, a CC50 (TK-10; [10]) of 8440 nM and a TGI (TK-10; read-out: TGI) of 4090 nM. It also gave a GI50 (TK-10; read-out: pGI50 (converted)) of 2000 nM, a CC50 (TK-10; [11]) of 8510 nM and a TGI (TK-10; read-out: pTGI (converted)) of 4070 nM. It also gave a growth at 0.1 µM (SNB-75) of 72%, a growth at 100 µM (Malme-3M [2]) of 83% and a growth at 0.1 µM (Malme-3M [3]) of 89%. It also gave a growth at 100 µM (SK-OV-3) of -96%, a growth at 0.01 µM (RXF 393) of 101% and a CC50 (NCI-H522; [10]) of 5210 nM. For the same molecule, the GI50 (NCI-H522; read-out: pGI50 (converted)) was 417 nM, the CC50 (NCI-H522; [11]) was 5250 nM and the TGI (NCI-H522; read-out: pTGI (converted)) was 1480 nM. For the same molecule, the growth at 0.1 µM (A498) was 67%, the growth at 0.1 µM (SF-539) was 95% and the growth at 0.1 µM (SR [4]) was 106%. The growth at 1 µM (HCT-15) was 24%, the growth at 0.1 µM (SNB-19) was 99% and the GI50 (OVCAR-3; read-out: GI50) was 1240 nM. The CC50 (OVCAR-3; [10]) was 5430 nM, the TGI (OVCAR-3; read-out: TGI) was 2600 nM and the GI50 (OVCAR-3; read-out: pGI50 (converted)) was 1230 nM. For the same molecule, the CC50 (OVCAR-3; [11]) was 5500 nM, the TGI (OVCAR-3; read-out: pTGI (converted)) was 2570 nM and the growth at 100 µM (SR [5]) was -68%. The growth at 0.1 µM (Hs-578T) was 90%, the GI50 (A549 [6]; read-out: GI50) was 1100 nM and the TGI (A549 [6]; read-out: TGI) was 2540 nM. It also gave a GI50 (A549 [6]; read-out: pGI50 (converted)) of 1100 nM, a TGI (A549 [6]; read-out: pTGI (converted)) of 2510 nM and a growth at 0.01 µM (LOX IMVI) of 94%. For the same molecule, the growth at 0.01 µM (A549 [7]) was 104%, the growth at 0.01 µM (EKVX [8]) was 88% and the growth at 100 µM (EKVX [9]) was 81%.
